How the values were obtained:
[1] = test system: GLP-1R; experiment: BRET / real-time intracellular cAMP response assay, GLP-1R; assay type: cell-based
Source text: Figure 7 Hypoglycemic action of [Aib8, E22, E30]-GLP-1(7–36) amide was not affected by N55. (a) Sequence alignment of GLP-1(7–36) amide, Ex-4 and mutant peptide. G22 and A30 (purple alphabets) are non-homologous residues between GLP-1(7–36) amide and Ex-4. These residues in GLP-1(7–36) amide were replaced with E (red alphabets), the corresponding residues (blue alphabets) in Ex-4, to generate DPP4-resistant GLP-1 mutant peptide ([Aib8, E22, E30]-GLP-1(7–36) amide). Effect of N55 on cAMP responses to the titration of (b) [Aib8, E22, E30]-GLP-1(7–36) amide and GLP-1′. Values are means ± SEM of triplicate assays from three independent experiments. Dose effect of [Aib8, E22, E30]-GLP-1(7–36) amide on (c) plasma glucose levels and on (d) glucose AUC0–120. Dose effect of N55 on (e) the hypoglycemic response and on (f) glucose AUC0–120 of 16.2 nmol/kg of [Aib8, E22, E30]-GLP-1(7–36) amide. Indicated doses of [Aib8, E22, E30]-GLP-1(7–36) amide and N55 were i.p. administered to group of fasted mice (n = 5) 15 min before the glucose loading (2 g/kg) of the IPGTT. Values are mean ± SEM for groups of five mice. * P < 0.05, ** P < 0.01 and *** P < 0.001 were comparisons of indicated dose of [Aib8, E22, E30]-GLP-1(7–36) amide vs control (c,d). NS, not significant.
The real-time intracellular cAMP assay was performed as previously described.
(§1) Values for each experimental group are presented as mean ± SEM. Statistics were performed using Student’s t-test and one-way analysis of variance (ANOVA). Significance levels shown in the figures are: * P < 0.05, ** P < 0.01 and *** P < 0.001 as well as ^# P < 0.05, ^## P < 0.01 and ^### P < 0.001. A P-value of less than 0.05 was considered significant. Student’s t-test that is used to compare the means of two groups and one-way ANOVA is used to compare the means of more than two groups. Five mice per group were used for the in vivo studies. The in vivo studies were performed at least twice. The in vitro assays were triplicates of three independent experiments.

[2] = test system: fasted mice; experiment: IPGTT, fasted mice (plasma glucose, glucose AUC0–120); assay type: in vivo, Female C57BL/6 mice
Source text: All animal procedures were approved by the Institute of Biomedical Sciences Animal Care and Use Committee (Academia Sinica, Taiwan). The Experimental Animal Committee, Academia Sinica, Taiwan approved all animal experimental procedures. All animals were carefully looked after to ensure that their welfare were well looked after. Additionally, all the experimental procedures and the reagents used in this manuscript have been approved by The Ethic Committee, Academia Sinica. All methods were performed in accordance with the relevant guidelines and regulations by the Institute of Biomedical Sciences Animal Care and Use Committee (Academia Sinica, Taiwan) and The Ethic Committee (Academia Sinica, Taiwan). Female C57BL/6 mice (BioLAS CO, Yi-Lan Breeding Center, Taiwan) aged 8–12 weeks were housed on a 12-h light/12-h dark cycle and provided with food and water ad libitum. The mice were fed with the standard chow (PicoLab Rodent Diet 5053, LabDiet, St. Louis, MO, USA) diet which consisted of 13.2% fat, 24.7% protein, and 62.1% carbohydrates as a source of calories.
All experiments were performed at approximately 1 PM. For the fasted mice, standard chow was removed away at 9 AM on the day of the IPGTT, but were provided water ad libitum for 4 h prior to the beginning of the test. All the administered materials were dissolved in isotonic sodium chloride solution (0.9% sodium chloride) containing 5% ethanol. Vehicle, N55, GLP-1′, [Aib8, E22, E30]-GLP-1(7–36) amide, Ex-4 or Ex-9 alone or in combination were administered by i.p. injection 15 min before D-(+)-glucose (2 g/kg of body weight) i.p. administration. Blood samples were drawn from the tail vein right before glucose loading (time 0) and at 15, 30, 60, 90 and 120 min after glucose administration. Plasma glucose was monitored using a glucometer (Accu-Check Performa, Roche, Basel, Switzerland). Glucose AUC0–120 was calculated during the 120-min time interval from IPGTT results. Glucose AUC0–120 was obtained using the formula AUC0–120 = [15 × (G0 + G15)/2] + [15 × (G15 + G30)/2] + [30 × (G30 + G60)/2] + [30 × (G60 + G90)/2] + [30 × (G90 + G120)/2] where G0, G15, G30, G60, G90 and G120 were blood glucose level at each time point during IPGTT. The decrease in plasma glucose was calculated by subtracting the plasma glucose in the presence of indicated reagent from that in the absence of indicated reagent; ∆ Plasma Glucose (mmol/l) = [plasma glucose at 15 min point obtained in the absence of indicated reagent] − [plasma glucose at 15 min point obtained in the presence of indicated reagent]. The decreased in glucose AUC0–120 was expressed by subtracting the AUC0–120 in the presence of f indicated reagent rom that in the absence of indicated reagent. ∆ AUC0–120 (mmol/l x min) = [AUC0–120 in the absence of indicated reagent] − [AUC0–120 in the presence of indicated reagent].
as §1

[3] = test system: mice; experiment: Plasma insulin during IPGTT; assay type: in vivo, Female C57BL/6 mice
Source text: (§2) All animal procedures were approved by the Institute of Biomedical Sciences Animal Care and Use Committee (Academia Sinica, Taiwan). The Experimental Animal Committee, Academia Sinica, Taiwan approved all animal experimental procedures. All animals were carefully looked after to ensure that their welfare were well looked after. Additionally, all the experimental procedures and the reagents used in this manuscript have been approved by The Ethic Committee, Academia Sinica. […]
(§3) All experiments were performed at approximately 1 PM. […] Plasma glucose was monitored using a glucometer (Accu-Check Performa, Roche, Basel, Switzerland). Glucose AUC0–120 was calculated during the 120-min time interval from IPGTT results. […] The decrease in plasma glucose was calculated by subtracting the plasma glucose in the presence of indicated reagent from that in the absence of indicated reagent; ∆ Plasma Glucose (mmol/l) = [plasma glucose at 15 min point obtained in the absence of indicated reagent] − [plasma glucose at 15 min point obtained in the presence of indicated reagent]. […]
Blood samples were collected from the tail vein before any drug administration and at 15 and 60 min after i.p. glucose loading (time 0). […] Plasma insulin levels were determined by a mouse insulin enzyme-linked immunosorbent assay kit (10–1247–01, Mercodia, Sweden) according to the manufacturer’s protocols. […]

[4] = test system: GLP-1R; details: cited from earlier work
Source text: Firstly, the hypoglycemic effect of N55 during IPGTT of non-fasted mice requires functional GLP-1R signaling. Secondly, although N55 could not affect the plasma glucose in fasted mice whose endogenous GLP-1 are relatively low (Fig. 2a). […] Thirdly, the hypoglycemic effect and potentiation of insulinotropic effect of GLP-1 required the functional s ... || (+ 1 further places)

[5] = test system: non-fasted mice; experiment: IPGTT, non-fasted mice (plasma glucose, glucose AUC0–120); assay type: in vivo, Female C57BL/6 mice; details: Ex-9 without N55 (1530 without Ex-9), mean, n = 5
Source text: as §2, with “Sinica. All methods were performed in accordance with the relevant guidelines and regulations by the Institute of Biomedical Sciences Animal Care and Use Committee (Academia Sinica, Taiwan) and The Ethic Committee (Academia Sinica, Taiwan).” for “Sinica.”
as §3

[6] = Ex-9 with GLP-1′ 5.4 nmol/kg, with or without N55, n = 5

HAibEGTFTSDVSSYLEEQAAKEFIEWLVKGR-NH2 [[Aib8, E22, E30]-GLP-1(7–36) amide, DPP4-resistant GLP-1 mutant peptide]
response to N55 (cAMP) ([1]; titration of peptide with N55, triplicate assays from three independent experiments): failed to respond to N55 | potency in stimulating GLP-1R (cAMP) ([1]; titration, compared with GLP-1′, triplicate assays from three independent experiments): displayed comparable potency in stimulating GLP-1R | glucose AUCs during IPGTT ([2]; mutant peptide i.p., n = 5): decreased glucose AUCs | plasma glucose during IPGTT ([2]; mutant peptide i.p., n = 5): dose-dependently lowered the plasma glucose

HAibEGTFTSDVSSYLEGQAAKEFIAWLVKGR-NH2 [GLP-1′, [Aib8]-GLP-1(7–36) amide, DPP4-resistant GLP-1 peptide]
glucose tolerance ([2]; GLP-1′ 0.2 nmol/kg alone i.p., n = 5): did not affect the glucose tolerance at all | contribution to improvement of glucose excursion in presence of Ex-9 ([2]; GLP-1′ 5.4 nmol/kg + Ex-9, without N55): non-detectable level | 15-min plasma glucose level ([2]; GLP-1′ 5.4 nmol/kg i.p. without N55, mean, n = 5): 18 mmol/L | glucose excursion (AUC0–120) ([2]; GLP-1′ 5.4 nmol/kg i.p., n = 5): significantly improved | glucose tolerance ([2]; GLP-1′ 5.4 nmol/kg i.p., n = 5): significantly improved the glucose tolerance | contribution of GLP-1′ to improvement of glucose excursion (AUC0–120 with Ex-9 minus without Ex-9) ([2]; GLP-1′ 5.4 nmol/kg without N55): 250 mmol/l x min glucose | glucose AUC0–120 ([2]; GLP-1′ 5.4 nmol/kg without N55, without Ex-9): 1270 mmol/l x min glucose | 15-min plasma insulin level ([3]; fasted mice, GLP-1′ without N55, 15 min after glucose loading, mouse insulin ELISA, mean, n = 5): 1.44 µg/L

[E22, E30] GLP-1 (7–36) amide
activation of receptor by point mutant of GLP-1 ([1]; point mutant without Aib8): retained ability to activate the receptor | response of point mutant of GLP-1 to N55 in vitro ([1]; point mutant without Aib8): not responsive to the enhancement of N55 in vitro

exendin-4 [Ex-4]
glucose AUC0–120 ([2]; Ex-4 5.4 nmol/kg i.p. (decreased from 1500), mean, n = 5): 780 mmol/l x min glucose | decrease in glucose level, dose dependence ([2]; Ex-4 i.p., n = 5): depended on the dose of Ex-4 | glucose AUCs, dose dependence ([2]; Ex-4 i.p., n = 5): decreased as dose of Ex-4 increased | glucose tolerance ([2]; Ex-4 i.p., n = 5): greatly improved the glucose tolerance | stimulation of GLP-1R in vitro by Ex-4 [4]: stimulated GLP-1R in vitro

exendin-(9–39) [Ex-9]
effect of Ex-9 on GLP-1′ glucose lowering and N55 enhancement [2, 6]: completely eliminated the glucose lowering effect of GLP-1′ and the enhancement effect of N55 | glucose AUC0–120 in all Ex-9 treated mice [2, 6]: ~1520 mmol/l x min glucose | plasma glucose level in Ex-9 treated mice [2, 6]: 22 mmol/L | plasma insulin level with Ex-9 ([3]; 15 and 60 min after glucose loading, Ex-9 treated non-fasted and fasted mice): 0.36 to 0.65 µg/L | glucose AUC0–120 [5]: 2070 mmol/l x min glucose

From article PMC5613011, “Fenugreek Compound (N55) Lowers Plasma Glucose through the Enhancement of Response of Physiological Glucagon-like peptide-1” (Scientific Reports, 2017)
